Measurements from US12545659B2, “IRAK degraders and uses thereof” (Kymera Therapeutics, Inc., priority 2019, dated 2026).
Read-outs that look alike come from different tables or passages of the source. Blank lines part the entries; values can stand above or below the compound they belong to.

Columns and labels:
[1] = cn_pd bond
IRAK4 = target: T1, IRAK4 (Homo sapiens, UniProt Q9NWZ3); assay: IRAK4 MSD Degradation in OCI-LY10; assay type: cell-based; conditions: OCI-LY10 cells
T1 construct: endogenous in cells; host or cells: OCI-LY10
T1 sequence (Q9NWZ3 1-460): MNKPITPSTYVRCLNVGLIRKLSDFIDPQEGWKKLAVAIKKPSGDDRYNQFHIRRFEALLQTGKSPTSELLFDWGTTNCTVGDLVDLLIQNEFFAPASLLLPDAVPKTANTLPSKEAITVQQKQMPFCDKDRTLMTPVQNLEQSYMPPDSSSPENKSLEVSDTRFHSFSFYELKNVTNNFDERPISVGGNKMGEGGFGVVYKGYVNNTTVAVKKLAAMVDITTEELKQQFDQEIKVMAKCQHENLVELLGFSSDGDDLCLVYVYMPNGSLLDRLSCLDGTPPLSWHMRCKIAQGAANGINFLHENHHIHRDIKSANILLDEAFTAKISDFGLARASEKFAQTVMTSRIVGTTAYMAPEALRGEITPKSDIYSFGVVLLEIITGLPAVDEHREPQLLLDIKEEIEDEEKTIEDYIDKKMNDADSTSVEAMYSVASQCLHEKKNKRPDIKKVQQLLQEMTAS
How it was run: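 OCI-LY10 cells treated with 8-dose, 1:3 dilution series (top final 1 to 10 μM) for 4 to 24 h at 37 °C, 5% CO2. Lysate IRAK4 quantified by MSD sandwich immunoassay (mouse 2H9 capture, rabbit Y279 detection, SULFO-TAG anti-rabbit); DC50 from three-parameter logistic fit.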

OCI-LY10 cells = assay: CTG Cell Viability Assay - OCI-LY10; assay type: cell-based; conditions: Homo sapiens, 96 h; OCI-LY10 cells, 4 days, CellTiter-Glo; read-out: CTG Cell Viability Assay - OCI-LY10: IC50
Procedure: Compound-mediated viability effect on OCI-LY10 or SUDHL-2 was quantitatively determined using the CellTiter-Glo® Luminescent Cell Viability Assay kit from Promega (Catalog number G7570) following manufacturer's recommended procedures. Briefly, OCI-LY10 or SUDHL-2 cells were seeded into 384 well plates (Grenier Bio-One, Catalog number 781080) with a density of 10,000 cells per well. Compounds were then added to the assay plate with final top concentration of 10 M and 1:3 dilution series with total of 9 doses. The final DMSO concentration was normalized to 0.2%. The assay plates were incubated at 37° C. for 4 days under 5% CO2. Then the assay plate was equilibrated at room temperature for 10 minutes. To determine cell viability, L CellTiter Glo reagent was added to each well and the assay plate was centrifuged at 1000 rpm for 30 second, incubated at room temperature for 10 min, and analyzed by detecting the luminescence using a multimode plate reader (EnVision 2105, PerkinElmer). The data was then analyzed by software Prism 7.0 from GraphPad and the dose response curves were fit using a three-parameter logistic equation to calculate IC50.

[2] = 4 hrs incubation, read-out: IRAK4 degradation in OCI-LY10 at 4 hrs: DC50
[3] = 24 hrs incubation, read-out: IRAK4 degradation in OCI-LY10 at 24 hrs: DC50

Compound: NC(=O)c1cccc(OCCO[C@H]2CCN(c3cc4nn(C5CCC(CO)CC5)cc4cc3Br)C2)c1 (stereo partly drawn)
ring closure, isolated yield ([1]; the molecule shown is the open-chain precursor, 14-membered ring, BrettPhos Pd G3/Cs2CO3, DMA, 100.0 mM, 90.0 °C): 33%

Compound: NC(=O)c1cccc(OCCCCCOc2cc3nn(C4CCC(CO)CC4)cc3cc2Br)n1 (stereo not drawn)
ring closure, isolated yield ([1]; the molecule shown is the open-chain precursor, 14-membered ring, BrettPhos Pd G4/Cs2CO3, DMA, 9.4 mM, 80.0 °C): 39%

Compound: 12-((1R,4R)-4-(hydroxymethyl)cyclohexyl)-12H-5,10-dioxa-2-aza-1(5,6)-indazola-4(2,6)-pyridinacyclodecaphan-3-one
ring closure, isolated yield ([1]; 13-membered ring, Pd2(dba)3/Xantphos/Cs2CO3, dioxane, 18.1 mM, 80.0 °C): 55%

Compound: Cc1cccc(C(=O)Nc2cc3cn([C@H]4CC[C@H](CN5CCC6(CC5)CC(CCc5cccc7c5n(C)c(=O)n7C5CCC(=O)NC5=O)C6)CC4)nc3cc2C(C)(C)O)n1 (stereo partly drawn) [I-276]
DC50 (IRAK4; [2]): < 50 nM

Compound: Cn1c(=O)n(C2CCC(=O)NC2=O)c2cccc(N3[C@@H]4CC[C@H]3CN(C[C@H]3CC[C@H](n5cc6cc(NC(=O)c7cccc(C(F)(F)F)n7)c(C(C)(C)O)cc6n5)CC3)C4)c21 (stereo partly drawn) [I-285]
DC50 (IRAK4; [2]): 50 to 100 nM

Compound: CN(C[C@H]1CC[C@H](n2cc3cc(NC(=O)c4cccc(C(F)(F)F)n4)c(N4CCOCC4)cc3n2)CC1)C1CCN(Cc2cccc3c2n(C)c(=O)n3C2CCC(=O)NC2=O)CC1 (stereo partly drawn) [I-214]
DC50 (IRAK4; [2]): 50 to 100 nM

The next lines start with the values.

DC50 (IRAK4; [2]): < 50 nM
IC50 (OCI-LY10 cells): > 1000 nM
Compound: COc1cc2nn([C@H]3CC[C@H](CN(C)C4CCN(c5cccc6c5n(C)c(=O)n6C5CCC(=O)NC5=O)CC4)CC3)cc2cc1NC(=O)c1cccc(C(F)(F)F)n1 (stereo partly drawn) [I-247, N-[2-[4-[[[1-[1-(2,6-dioxo-3-piperidyl)-3-methyl-2-oxo-benzimidazol-4-yl]-4-piperidyl]-methyl-amino]methyl]cyclohexyl]-6-methoxy-indazol-5-yl]-6-(trifluoromethyl)pyridine-2-carboxamide]

DC50 (IRAK4; [2]): < 50 nM
Compound: Cn1c(=O)n(C2CCC(=O)NC2=O)c2ccc(C#CCCCNC[C@H]3CC[C@H](n4cc5cc(NC(=O)c6cccc(C(F)(F)F)n6)c(C(C)(C)O)cc5n4)CC3)cc21 (stereo partly drawn) [I-61, N-[2-[4-[[5-[1-(2,6-dioxo-3-piperidyl)-3-methyl-2-oxo-benzimidazol-5-yl]pent-4-ynylamino]methyl]cyclohexyl]-6-(1-hydroxy-1-methyl-ethyl)indazol-5-yl]-6-(trifluoromethyl)pyridine-2-carboxamide]

DC50 (IRAK4; [3]): 50 to 100 nM
Compound: COc1cc2c(cc1NC(=O)c1cccc(C(F)(F)F)n1)CN([C@H]1CC[C@H](CN3CC4(CC(CCNc5cccc6c5C(=O)N(C5CCC(=O)NC5=O)C6=O)C4)C3)CC1)C2=O (stereo partly drawn) [I-331]

DC50 (IRAK4; [2]): < 50 nM
Compound: COc1cc2nn([C@H]3CC[C@H](CN4CCC(c5cccc6c5n(C)c(=O)n6C5CCC(=O)NC5=O)CC4)CC3)cc2cc1NC(=O)c1coc(C)n1 (stereo partly drawn) [I-325]

DC50 (IRAK4; [3]): < 50 nM
Compound: CC(C)(O)c1cc2nn([C@H]3CC[C@H](CN4CCO[C@H](CCCNc5cccc6c5C(=O)N(C5CCC(=O)NC5=O)C6=O)C4)CC3)cc2cc1NC(=O)c1cccc(C(F)(F)F)n1 (stereo partly drawn) [I-64]

DC50 (IRAK4; [2]): < 50 nM
Compound: Cn1c(=O)n(C2CCC(=O)NC2=O)c2cccc(C[C@H]3C[C@@]4(CC[C@@H](N(C)C[C@H]5CC[C@H](n6cc7cc(NC(=O)c8cccc(C(F)(F)F)n8)c(C(F)F)cc7n6)CC5)CC4)C3)c21 (stereo partly drawn) [I-155]

DC50 (IRAK4; [3]): 500 to 1000 nM
Compound: CN(CCCO[C@H]1C[C@H](Nc2cccc3c2C(=O)N(C2CCC(=O)NC2=O)C3=O)C1)C[C@H]1CC[C@H](n2cc3cc(N(C)C(=O)c4cccc(C(F)(F)F)n4)c(C(C)(C)O)cc3n2)CC1 (stereo partly drawn) [I-225]

DC50 (IRAK4; [3]): 50 to 100 nM
Compound: COc1cc2nn([C@H]3CC[C@H](CN4CCC5(CC4)CC(CCNc4cccc6c4C(=O)N(C4CCC(=O)NC4=O)C6=O)C5)CC3)cc2cc1NC(=O)c1ccc(F)c(C)n1 (stereo partly drawn) [I-121]
